Experimental data taken from patent US20060122185A1, “Bicyclic inhibitors of Rho kinase” (priority 2004, published 2006).

What was measured:
[1] = molecular target: ROCK I (AA 6-553) (Homo sapiens, UniProt Q13464); assay: ROCK I coupled enzyme assay (enzyme-linked); format: biochemical; settings: 45 μM ATP, 200 μM peptide, 45 nM ROCK I, 30° C.
Description: Compounds are screened for their ability to inhibit ROCK I (AA 6-553) activity using a standard coupled enzyme system (Fox et al. Protein Sci. 7: 2249, 1998). Reactions are carried out in a solution containing 100 mM HEPES (pH 7.5), 10 mM MgCl2, 25 mM NaCl, 2 mM DTT and 1.5% DMSO. Final substrate concentrations in the assay are 45 μM ATP (Sigma Chemicals, St Louis, Mo.) and 200 μM peptide (American Peptide, Sunnyvale, Calif.). Reactions are carried out at 30° C. and 45 nM ROCK I. Final concentrations of the components of the coupled enzyme system are 2.5 mM phosphoenolpyruvate, 350 μM NADH, 30 μg/ml pyruvate kinase and 10 μg/ml lactate dehydrogenase.
(§1) Table 3 depicts enzyme inhibition data (Ki) for certain exemplary compounds. Compound numbers in Table 3 correspond to those compounds depicted in Table 1.

[2] = molecular target: ROCK (Homo sapiens, UniProt Q13464); assay: ROCK radioactive enzyme assay (33P); format: biochemical; settings: 13 μM [γ-33P] ATP, 27 μM MBP, 5 nM ROCK, room temperature
Description: Compounds are screened for their ability to inhibit ROCK using a standard radioactive enzyme assay. Assays are carried out in a solution containing 100 mM HEPES (pH 7.5), 10 mM MgCl2, 25 mM NaCl, 2 mM DTT and 1.5% DMSO. Final substrate concentrations in the assay are 13 μM [γ-^33P] ATP (25 mCi ^33P ATP/mmol ATP, Perkin Elmer, Cambridge, Mass./Sigma Chemicals, St Louis, Mo.) and 27 μM Myelin Basic Protein (MBP). Final enzyme concentration in the assay is 5 nM ROCK. Assays are carried out at room temperature. 1.5 μl of DMSO stock containing serial dilutions of the compound of the present invention (concentrations ranging from 10 μM to 2.6 nM) is placed in a 96 well plate. 50 μl of Solution 1 (100 mM HEPES (pH 7.5), 10 mM MgCl2, […] [γ-^33P] ATP) is added to the plate. The reaction is initiated by addition of 50 μl of Solution 2 (100 mM HEPES (pH 7.5), 10 mM MgCl2, 4 mM DTT, […] and 10 nM ROCK). After 2 hours the reaction is quenched with 50 μL of 30% trichloroacetic acid (TCA, Fisher) containing 9 mM ATP. Transfer of 140 μL of the quenched reaction to a glass fiber filter plate (Corning, Cat. No. 3511) is followed by washing 3 times with 5% TCA. 50 μL of Optima Gold scintillation fluid (Perkin Elmer) is added and the plates are counted on a Top Count (Perkin Elmer). After removing mean background values for all of the data points the data is fit using Prism software to obtain a Ki(app).
as §1

Sequence of ROCK (Q13464 6-553): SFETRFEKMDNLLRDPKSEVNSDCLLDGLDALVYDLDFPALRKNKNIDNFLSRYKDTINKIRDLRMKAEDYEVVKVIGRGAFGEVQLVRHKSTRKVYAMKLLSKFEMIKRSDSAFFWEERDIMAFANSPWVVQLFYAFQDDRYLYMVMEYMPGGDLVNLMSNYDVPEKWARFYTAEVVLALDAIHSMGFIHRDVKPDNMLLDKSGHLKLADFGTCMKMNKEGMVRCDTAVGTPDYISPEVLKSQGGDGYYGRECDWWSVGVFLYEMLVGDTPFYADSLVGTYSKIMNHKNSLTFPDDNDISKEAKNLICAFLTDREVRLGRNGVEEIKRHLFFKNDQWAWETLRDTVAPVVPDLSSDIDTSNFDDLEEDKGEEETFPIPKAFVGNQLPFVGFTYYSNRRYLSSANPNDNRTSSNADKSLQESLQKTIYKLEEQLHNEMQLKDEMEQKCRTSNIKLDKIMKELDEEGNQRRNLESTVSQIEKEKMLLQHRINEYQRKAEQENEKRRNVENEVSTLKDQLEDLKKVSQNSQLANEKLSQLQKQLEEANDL
Sequence of ROCK I (AA 6-553) (Q13464 6-553): as above

| SMILES | Ki [1] | Ki [2] |
| --- | --- | --- |
| O=C(Cc1ccccc1)Nc1nc(-c2n[nH]c3ncccc23)cs1 [Compound 2] | – | < 500 nM |
| COc1cccc(CC(=O)Nc2nc(-c3n[nH]c4ncccc34)cs2)c1 [Compound 3] | – | < 500 nM |
| CCN(CC)S(=O)(=O)c1cccc(CC(=O)Nc2nc(-c3n[nH]c4ncccc34)cs2)c1 [Compound 4] | – | < 500 nM |
| CS(=O)(=O)Nc1cccc(CC(=O)Nc2nc(-c3n[nH]c4ncccc34)cs2)c1 [Compound 5] | – | < 500 nM |
| CS(=O)(=O)Nc1ccc(F)c(CC(=O)Nc2cc(-c3n[nH]c4ncccc34)cs2)c1 [Compound 6, 2-(2-Fluoro-5-methanesulfonylamino-phenyl)-N-[4-(1H-pyrazolo[3,4-b]pyridin-3-yl)-thiophen-2-yl]-acetamide] | – | < 500 nM |
| O=C(Cc1cccc(OCCCC2CCNCC2)c1)Nc1cc(-c2n[nH]c3ncccc23)cs1 [Compound 7, 2-(3-(3-Piperidin-4-yl-propoxy)-phenyl)-N-[4-(1H-pyrazolo[3,4-b]pyridin-3-yl)-thiophen-2-yl]-acetamide] | – | < 500 nM |
| CS(=O)(=O)Nc1cccc(CC(=O)Nc2cc(-c3n[nH]c4ncccc34)cs2)c1 [Compound 8, 2-(3-Methanesulfonylamino-phenyl)-N-[4-(1H-pyrazolo[3,4-b]pyridin-3-yl)-thiophen-2-yl]-acetamide] | – | < 500 nM |
| CS(=O)(=O)Nc1ccc(F)c(CC(=O)Nc2cc(-c3n[nH]c4nccnc34)cs2)c1 [Compound 9, N-(4-(1H-pyrazolo[3,4-b]pyrazin-3-yl)thiophen-2-yl)-2-(5-methsulfonamido-2-fluorophenyl)acetamide] | – | < 500 nM |
| CN(C)S(=O)(=O)c1cccc(CC(=O)Nc2cc(-c3n[nH]c4ncccc34)cs2)c1 [Compound 10, 2-(3-Dimethylsulfamoyl-phenyl)-N-[4-(1H-pyrazolo[3,4-b]pyridin-3-yl)-thiophen-2-yl]-acetamide] | – | < 500 nM |
| CS(=O)(=O)Nc1cccc(CNC(=O)c2cc(-c3n[nH]c4ncccc34)c[nH]2)c1 [Compound 11] | – | < 500 nM |
| O=C(NCC1CCCCC1)c1cc(-c2n[nH]c3ncccc23)c[nH]1 [Compound 17] | – | < 500 nM |
| CS(=O)(=O)Nc1cccc(CC(=O)Nc2cc(-c3n[nH]c4nccnc34)cs2)c1 [Compound 20] | – | < 500 nM |

Next, values leading:

| Ki [1] | Ki [2] | SMILES |
| --- | --- | --- |
| < 500 nM | – | O=C(N[C@H](CO)c1ccccc1)c1cc(-c2n[nH]c3ncccc23)c[nH]1 [Compound 1] |
| – | 500 to 5000 nM | CC(CO)NC(=O)c1cc(-c2n[nH]c3ncccc23)c[nH]1 (stereo not shown) [Compound 12] |
| – | < 500 nM | COc1cccc(CNC(=O)c2cc(-c3n[nH]c4ncccc34)c[nH]2)c1 [Compound 13] |
| – | < 500 nM | O=C(NCc1cccc(OC(F)(F)F)c1)c1cc(-c2n[nH]c3ncccc23)c[nH]1 [Compound 14] |
| – | < 500 nM | O=C(NCc1ccc2c(c1)OCO2)c1cc(-c2n[nH]c3ncccc23)c[nH]1 [Compound 15] |
| – | < 500 nM | O=C(NCc1cccc(F)c1)c1cc(-c2n[nH]c3ncccc23)c[nH]1 [Compound 16] |
| – | < 500 nM | O=C(NCc1ccc(F)cc1)c1cc(-c2n[nH]c3ncccc23)c[nH]1 [Compound 18] |
